SMILES strings stand for the structures. Where only a bound is given, the exact number is not on record here.

Data set [1] deals with T1, H6PD (Homo sapiens, UniProt O95479).
T1 sequence (O95479 20-791): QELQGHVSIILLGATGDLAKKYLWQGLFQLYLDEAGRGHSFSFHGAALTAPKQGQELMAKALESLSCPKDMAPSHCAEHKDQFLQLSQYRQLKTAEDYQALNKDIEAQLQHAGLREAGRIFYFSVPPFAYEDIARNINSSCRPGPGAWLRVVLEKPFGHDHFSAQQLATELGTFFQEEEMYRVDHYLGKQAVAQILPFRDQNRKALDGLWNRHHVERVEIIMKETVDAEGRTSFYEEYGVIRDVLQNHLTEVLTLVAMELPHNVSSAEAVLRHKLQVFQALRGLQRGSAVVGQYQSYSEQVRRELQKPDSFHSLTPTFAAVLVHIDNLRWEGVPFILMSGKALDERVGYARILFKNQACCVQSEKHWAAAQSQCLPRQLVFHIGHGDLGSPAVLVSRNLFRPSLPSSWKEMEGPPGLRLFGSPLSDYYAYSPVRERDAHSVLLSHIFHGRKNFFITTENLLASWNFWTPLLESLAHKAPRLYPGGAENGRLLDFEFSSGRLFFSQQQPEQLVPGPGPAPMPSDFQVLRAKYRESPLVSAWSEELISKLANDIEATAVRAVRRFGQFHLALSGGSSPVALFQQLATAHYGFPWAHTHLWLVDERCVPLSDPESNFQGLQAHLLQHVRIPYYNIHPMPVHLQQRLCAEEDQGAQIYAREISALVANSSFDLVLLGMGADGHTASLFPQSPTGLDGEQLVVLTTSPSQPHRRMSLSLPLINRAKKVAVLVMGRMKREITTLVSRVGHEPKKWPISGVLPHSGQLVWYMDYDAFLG
Nature of the data set: Affinity matrix pulldown and immunoblot for H6PD. The format is binding. To be noted: CAL-51 lysate; competed with 20 μM free rucaparib. Background: In western blotting, separated proteins are transferred to a membrane and probed.

Data set [2] concerns the target T1, H6PD. Particulars: read-out: IC50 for H6PD inhibition (reported); ref Tagawa et al., 2015; cited from earlier work.
The test system of data set [3] is CAL-51 shH6PD cells. Nature of the data set: Cell viability in CAL-51 shNT vs shH6PD cells. The format is cell-based. To be noted: CAL-51 shH6PD vs shNT, 5 d.
The test system of data set [4] is CAL-51 H6PD-OE cells. Nature of the data set: Cell viability in CAL-51 parental vs H6PD-overexpressing cells. The data set is classed as cell-based. Particulars: CAL-51 H6PD-OE vs parental, 5 d.
Data set [5] relates to CAL-51 cells. The data set is described as follows: Immunoblot of apoptosis markers in CAL-51 cells after PARPi treatment. The data set is classed as cell-based. To be noted: 48 h, 40 μM PARPi.
The subject of data set [6] is H322 cells. Nature of the data set: H322 cell viability. Particulars: 5 d, CellTiterGlo. The data set is classed as cell-based. For orientation: ATP-based viability assays read luminescence as a measure of living cells.
For data set [7] the following is noted: ref Plummer et al., 2008; cited from earlier work.
For data set [8] the following is noted: reach as high as; ref Murray et al., 2014; cited from earlier work.
For data set [9] the following is noted: ref Haura et al., 2010; cited from earlier work.
The subject of data set [10] is A549 cells. To be noted: 2 μM cytarabine, 3 days.
In data set [11] the target is T2, DCK (Homo sapiens, UniProt P27707). Particulars: compared to the other PARPi.
T2 sequence (P27707 whole entry): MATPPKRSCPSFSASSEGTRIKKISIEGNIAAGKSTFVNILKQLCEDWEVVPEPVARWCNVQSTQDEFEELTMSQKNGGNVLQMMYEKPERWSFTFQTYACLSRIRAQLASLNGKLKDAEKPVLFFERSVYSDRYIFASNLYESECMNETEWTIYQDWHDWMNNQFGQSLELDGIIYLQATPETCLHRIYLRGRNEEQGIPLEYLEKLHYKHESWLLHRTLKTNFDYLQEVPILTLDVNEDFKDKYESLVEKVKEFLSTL
Data set [12] addresses T2, DCK. Nature of the data set: Affinity matrix pulldown and immunoblot for DCK. The data set is classed as binding. Particulars: CAL-51 lysate.

Turning to `CN(CCCN)Cc1ccc(-c2[nH]c3cc(F)cc4c3c2CCNC4=O)cc1` [c-rucaparib], the “Enrichment of H6PD by affinity matrix (immunoblot)” value in [1] was “specifically enriched”.

Consider `O=c1c(-c2ccc(O)cc2)coc2cc(O)cc(O)c12` [genistein], for which the half-inhibitory concentration (IC50) in data set [2] was over 50 µM.

Take `Cn1ncnc1[C@H]1c2n[nH]c(=O)c3cc(F)cc(c23)N[C@@H]1c1ccc(F)cc1` [talazoparib]: the “Effect of stable H6PD knockdown on potency (cell viability)” value in data set [3] was “increased the potency”.

As to `CNCc1ccc(-c2[nH]c3cc(F)cc4c3c2CCNC4=O)cc1` [rucaparib], the “Effect of stable H6PD overexpression on IC50 for inhibition of cell viability” value in data set [4] was “increased the IC50”. Moreover, the “PARP1 and caspase-3 cleavage compared to the other PARPi” value in data set [5] was “increased”. The “Viability of H322 cells at high concentrations compared to other PARPi” value in data set [6] is reported as “decreased more”. For the same compound, in data set [7], the “Plasma levels in patients” value was 2.7 µM. The “Concentrations in murine tumors” value in data set [8] is ~ 20 μM.

For the compound `COc1cc2ncnc(Nc3ccc(F)c(Cl)c3)c2cc1OCCCN1CCOCC1` [gefitinib], in data set [9], the “Drug concentration in human tumor tissue relative to plasma levels” value is given as “up to 40 fold”.

In the case of `O=C(c1cc(Cc2n[nH]c(=O)c3ccccc23)ccc1F)N1CCN(C(=O)C2CC2)CC1` [olaparib], in data set [3], the “Effect of stable H6PD knockdown on potency (cell viability)” value is “increased the potency”.

As for `NC(=O)c1cccc2cn(-c3ccc([C@@H]4CCCNC4)cc3)nc12` [niraparib], the “Rescue of A549 cells from cytarabine toxicity” value in data set [10] (DI-39 as positive control) was “dose-dependently rescued”. The “Concentrations needed to observe reduced cytarabine toxicity” value in [10] (A549 cells) lay in the range of 20 to 40 µM. Besides, the “Inhibition of DCK activity in cell-free extracts” value in data set [11] was “specific inhibition”.

On to `NCCCN1CCC[C@@H](c2ccc(-n3cc4cccc(C(N)=O)c4n3)cc2)C1` [c-niraparib], for which the “Enrichment of DCK by affinity matrix (immunoblot)” value in data set [12] is “confirmed”.

By IC50 is commonly meant the point on the concentration scale where inhibition reaches its midpoint.
